Assays:
VCaP cells = assay: Cellular growth inhibition assay for VCaP cells, CellTiter-Glo; assay type: cell-based, human; conditions: 72 hours treatment, CellTiter-Glo 2.0
In short: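 GI50 values come from four-parameter curve fits of luminescence data normalized to a zero baseline. Compound, in medium with 0.5% DMSO, was added one day after plating and left for 72 h before CellTiter-Glo 2.0 addition.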

T47D cells = assay: Cellular growth inhibition assay for T47D cells, CellTiter-Glo; assay type: cell-based, human; conditions: 72 hours treatment, CellTiter-Glo 2.0 cell viability
In short: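 Cells are plated at 3000/well and allowed 24 h before treatment. Test compound in medium containing 0.5% DMSO is then added, with DMSO-only wells as negative control, and plates are incubated 72 h at 37 °C. ATP luminescence (CellTiter-Glo 2.0) is then fitted to four parameters to derive GI50.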

[1] = Cellular growth inhibition, T-Rex 293 SC cells with doxycycline (progesterone receptor isoform B induced), Example 45; assay type: cell-based; conditions: progesterone receptor isoform B induced with 10 ng/mL doxycycline, 72 hours, CellTiter-Glo 2.0, Table 11

Measured: GI50

Cc1sc2c(c1C)C(c1ccc(CC3CC4(CCN(c5ccc(C(=O)N[C@H]6C(C)(C)[C@H](Oc7ccc(C#N)c(Cl)c7)C6(C)C)cn5)CC4)C3)cc1)=N[C@@H](Cc1ncco1)c1nnc(C)n1-2 [Compound I-143]
< 500 nM: VCaP cells | T47D cells | [1]

Cc1sc2c(c1C)C(c1ccc(N3CC(N4CCN(c5ncc(C(=O)N[C@H]6C(C)(C)[C@H](Oc7ccc(C#N)c(Cl)c7)C6(C)C)cn5)CC4)C3)cc1)=NC(Cc1ncco1)c1nnc(C)n1-2 (stereo partly drawn) [Compound I-208]
< 500 nM: VCaP cells; Homo sapiens, VCaP, 72 h | T47D cells; Homo sapiens, T47D, 72 h | [1]
